Assay results as given in PubChem BioAssay AID1963845 (Molecular Pharmacology Branch, DTP, NCI, 2024).

Test system: 429239-143-T-J1-PDC complex spheroid viability
Assay: Anticancer human tumor 429239-143-T-J1-PDC patient-derived small cell lung carcinoma cell line growth inhibition [POLQ]
Details: for IC50: curve of first compound; for viability, T/C: stronger effect = lower value
Procedure, shortened: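 Complex spheroid viability model combining PDC tumour cells with endothelial (HUVEC) and MSC stromal cells. Novobiocin, ART-558 or RP6685 were tested singly and in combination with standard and investigational anticancer drugs. Each was titrated in half-log steps from near clinical Cmax, or from 10 microM where Cmax was unknown.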

[1] = second compound 0.0316 µM, first compound 0.0316 µM
[2] = second compound 0.0316 µM, first compound 0.1 µM
[3] = second compound 0.0316 µM, first compound 0.316 µM
[4] = second compound 0.0316 µM, first compound 1 µM
[5] = second compound 0.0316 µM, first compound 3.16 µM
[6] = second compound 0.0316 µM, first compound 10 µM
[7] = second compound 0.1 µM, first compound 0.0316 µM
[8] = second compound 0.1 µM, first compound 0.1 µM
[9] = second compound 0.1 µM, first compound 0.316 µM
[10] = second compound 0.1 µM, first compound 1 µM
[11] = second compound 0.1 µM, first compound 3.16 µM
[12] = second compound 0.1 µM, first compound 10 µM
[13] = second compound 0.316 µM, first compound 0.0316 µM
[14] = second compound 0.316 µM, first compound 0.1 µM
[15] = second compound 0.316 µM, first compound 0.316 µM
[16] = second compound 0.316 µM, first compound 1 µM
[17] = second compound 0.316 µM, first compound 3.16 µM
[18] = second compound 0.316 µM, first compound 10 µM
[19] = second compound 1 µM, first compound 0.0316 µM
[20] = second compound 1 µM, first compound 0.1 µM
[21] = second compound 1 µM, first compound 0.316 µM
[22] = second compound 1 µM, first compound 1 µM
[23] = second compound 1 µM, first compound 3.16 µM
[24] = second compound 1 µM, first compound 10 µM
[25] = second compound 3.16 µM, first compound 0.0316 µM
[26] = second compound 3.16 µM, first compound 0.1 µM
[27] = second compound 3.16 µM, first compound 0.316 µM
[28] = second compound 3.16 µM, first compound 1 µM
[29] = second compound 3.16 µM, first compound 3.16 µM
[30] = second compound 3.16 µM, first compound 10 µM
[31] = second compound 10 µM, first compound 0.0316 µM
[32] = second compound 10 µM, first compound 0.1 µM
[33] = second compound 10 µM, first compound 0.316 µM
[34] = second compound 10 µM, first compound 1 µM
[35] = second compound 10 µM, first compound 3.16 µM
[36] = second compound 10 µM, first compound 10 µM
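Note: luminescence signal used as surrogate measure of viable cells; spheroids exposed to compounds for seven days before readout.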
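Throughout, for viability, T/C: 100% = DMSO vehicle control viability as luminescence relative to vehicle.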

## CCc1cc2c(N3CCc4c(cc(Cn5ccnc5)cc4-c4cn(C)nc4C(F)(F)F)C3=O)ccnc2c(OC)n1 + Nc1ccc(C#CCN(C(=O)Cc2ncc(C(F)(F)F)cc2C(F)(F)F)c2ccc(F)cc2)nn1
Second compound 0.0316 µM
  IC50: 9750 nM
Second compound 0.1 µM
  IC50: > 10000 nM
Second compound 0.316 µM
  IC50: 7860 nM
Second compound 1 µM
  IC50: 9550 nM
Second compound 3.16 µM
  IC50: > 10000 nM
Second compound 10 µM
  IC50: > 10000 nM
[1]
  viability, T/C: 100%
[2]
  viability, T/C: 94.9%
[3]
  viability, T/C: 85.2%
[4]
  viability, T/C: 80.7%
[5]
  viability, T/C: 86.4%
[6]
  viability, T/C: 48%
[7]
  viability, T/C: 93.7%
[8]
  viability, T/C: 96.8%
[9]
  viability, T/C: 92.5%
[10]
  viability, T/C: 74.1%
[11]
  viability, T/C: 68.5%
[12]
  viability, T/C: 49.2%
[13]
  viability, T/C: 112%
[14]
  viability, T/C: 113%
[15]
  viability, T/C: 97.8%
[16]
  viability, T/C: 83.8%
[17]
  viability, T/C: 69.9%
[18]
  viability, T/C: 44.7%
[19]
  viability, T/C: 108%
[20]
  viability, T/C: 94.4%
[21]
  viability, T/C: 94.4%
[22]
  viability, T/C: 84.6%
[23]
  viability, T/C: 74.3%
[24]
  viability, T/C: 47.6%
[25]
  viability, T/C: 108%
[26]
  viability, T/C: 96%
[27]
  viability, T/C: 93.1%
[28]
  viability, T/C: 93.6%
[29]
  viability, T/C: 70.9%
[30]
  viability, T/C: 54%
[31]
  viability, T/C: 103%
[32]
  viability, T/C: 93%
[33]
  viability, T/C: 88.5%
[34]
  viability, T/C: 79.1%
[35]
  viability, T/C: 71%
[36]
  viability, T/C: 48.2%

## COc1cccc(OCCCN)c1-c1cc(Nc2cnc(C#N)cn2)n[nH]1 + COC1C(OC(N)=O)C(O)C(Oc2ccc3c(O)c(NC(=O)c4ccc(O)c(CC=C(C)C)c4)c(=O)oc3c2C)OC1(C)C
Second compound 0.0316 µM
  IC50: 82.1 nM
Second compound 0.1 µM
  IC50: 69 nM
Second compound 0.316 µM
  IC50: 69.6 nM
Second compound 1 µM
  IC50: 64.5 nM
Second compound 3.16 µM
  IC50: 57.9 nM
Second compound 10 µM
  IC50: 54.9 nM
Second compound 0.0316 µM, first compound 0.00316 µM
  viability, T/C: 98.8%
Second compound 0.0316 µM, first compound 0.01 µM
  viability, T/C: 94.7%
[1]
  viability, T/C: 79.8%
[2]
  viability, T/C: 42.2%
[3]
  viability, T/C: 32%
[4]
  viability, T/C: 21.3%
Second compound 0.1 µM, first compound 0.00316 µM
  viability, T/C: 93.6%
Second compound 0.1 µM, first compound 0.01 µM
  viability, T/C: 92.8%
[7]
  viability, T/C: 66.6%
[8]
  viability, T/C: 42.1%
[9]
  viability, T/C: 26.6%
[10]
  viability, T/C: 21%
Second compound 0.316 µM, first compound 0.00316 µM
  viability, T/C: 99.7%
Second compound 0.316 µM, first compound 0.01 µM
  viability, T/C: 99%
[13]
  viability, T/C: 72.8%
[14]
  viability, T/C: 39.1%
[15]
  viability, T/C: 27.1%
[16]
  viability, T/C: 20.4%
Second compound 1 µM, first compound 0.00316 µM
  viability, T/C: 90.8%
Second compound 1 µM, first compound 0.01 µM
  viability, T/C: 99.1%
[19]
  viability, T/C: 70.9%
[20]
  viability, T/C: 37.3%
[21]
  viability, T/C: 30.3%
[22]
  viability, T/C: 24%
Second compound 3.16 µM, first compound 0.00316 µM
  viability, T/C: 96.3%
Second compound 3.16 µM, first compound 0.01 µM
  viability, T/C: 99.4%
[25]
  viability, T/C: 66.7%
[26]
  viability, T/C: 35.3%
[27]
  viability, T/C: 28.5%
[28]
  viability, T/C: 23.1%
Second compound 10 µM, first compound 0.00316 µM
  viability, T/C: 83.6%
Second compound 10 µM, first compound 0.01 µM
  viability, T/C: 83.5%
[31]
  viability, T/C: 64.7%
[32]
  viability, T/C: 33.5%
[33]
  viability, T/C: 34%
[34]
  viability, T/C: 23.4%

## CCc1cc2c(N3CCc4c(cc(Cn5ccnc5)cc4-c4cn(C)nc4C(F)(F)F)C3=O)cc(C)nc2c(OC)n1 + Nc1ccc(C#CCN(C(=O)Cc2ncc(C(F)(F)F)cc2C(F)(F)F)c2ccc(F)cc2)nn1
Second compound 0.0316 µM
  IC50: 7230 nM
Second compound 0.1 µM
  IC50: 8600 nM
Second compound 0.316 µM
  IC50: 8700 nM
Second compound 1 µM
  IC50: 7140 nM
Second compound 3.16 µM
  IC50: 7930 nM
Second compound 10 µM
  IC50: 4850 nM
[1]
  viability, T/C: 104%
[2]
  viability, T/C: 94.1%
[3]
  viability, T/C: 91.3%
[4]
  viability, T/C: 77.4%
[5]
  viability, T/C: 72.1%
[6]
  viability, T/C: 41.3%
[7]
  viability, T/C: 98.7%
[8]
  viability, T/C: 88.1%
[9]
  viability, T/C: 85.8%
[10]
  viability, T/C: 82.1%
[11]
  viability, T/C: 74.1%
[12]
  viability, T/C: 45.4%
[13]
  viability, T/C: 103%
[14]
  viability, T/C: 91.4%
[15]
  viability, T/C: 98.7%
[16]
  viability, T/C: 81.2%
[17]
  viability, T/C: 63.4%
[18]
  viability, T/C: 48.1%
[19]
  viability, T/C: 108%
[20]
  viability, T/C: 86.4%
[21]
  viability, T/C: 91.7%
[22]
  viability, T/C: 80.4%
[23]
  viability, T/C: 76%
[24]
  viability, T/C: 40%
[25]
  viability, T/C: 101%
[26]
  viability, T/C: 110%
[27]
  viability, T/C: 88.7%
[28]
  viability, T/C: 71.3%
[29]
  viability, T/C: 58.7%
[30]
  viability, T/C: 46.7%
[31]
  viability, T/C: 104%
[32]
  viability, T/C: 86.2%
[33]
  viability, T/C: 84.2%
[34]
  viability, T/C: 79.3%
[35]
  viability, T/C: 64.6%
[36]
  viability, T/C: 29.9%

## O=C(c1cc(Cc2n[nH]c(=O)c3ccccc23)ccc1F)N1CCN(C(=O)C2CC2)CC1 + COC1C(OC(N)=O)C(O)C(Oc2ccc3c(O)c(NC(=O)c4ccc(O)c(CC=C(C)C)c4)c(=O)oc3c2C)OC1(C)C
Second compound 0.0316 µM
  IC50: 1940 nM
Second compound 0.1 µM
  IC50: 1960 nM
Second compound 0.316 µM
  IC50: 1700 nM
Second compound 1 µM
  IC50: 1970 nM
Second compound 3.16 µM
  IC50: 1700 nM
Second compound 10 µM
  IC50: 1360 nM
[1]
  viability, T/C: 97.2%
[2]
  viability, T/C: 80.8%
[3]
  viability, T/C: 79.1%
[4]
  viability, T/C: 82.3%
[5]
  viability, T/C: 26.2%
[6]
  viability, T/C: 16.1%
[7]
  viability, T/C: 82.7%
[8]
  viability, T/C: 88.6%
[9]
  viability, T/C: 77.8%
[10]
  viability, T/C: 74.3%
[11]
  viability, T/C: 32.9%
[12]
  viability, T/C: 18.2%
[13]
  viability, T/C: 103%
[14]
  viability, T/C: 97.2%
[15]
  viability, T/C: 86.8%
[16]
  viability, T/C: 68.9%
[17]
  viability, T/C: 28.9%
[18]
  viability, T/C: 18.2%
[19]
  viability, T/C: 104%
[20]
  viability, T/C: 87.5%
[21]
  viability, T/C: 81.2%
[22]
  viability, T/C: 78.5%
[23]
  viability, T/C: 30.4%
[24]
  viability, T/C: 17.6%
[25]
  viability, T/C: 97.3%
[26]
  viability, T/C: 86.5%
[27]
  viability, T/C: 73.8%
[28]
  viability, T/C: 71.6%
[29]
  viability, T/C: 29.2%
[30]
  viability, T/C: 19%
[31]
  viability, T/C: 106%
[32]
  viability, T/C: 99.6%
[33]
  viability, T/C: 86.9%
[34]
  viability, T/C: 60.7%
[35]
  viability, T/C: 24.8%
[36]
  viability, T/C: 16.4%
